Test results published in BigSolDB 2.1.

O=C(O)Cc1ccccc1Cl
solubility (mole fraction)
Conditions | 273.15 K | 278.15 K | 283.15 K | 288.15 K | 293.15 K | 298.15 K | 303.15 K | 308.15 K | 313.15 K | 318.15 K
in 2-butanone | 0.254 | 0.282 | 0.315 | 0.351 | 0.389 | 0.426 | 0.462 | 0.496 | 0.528 | 0.567
in acetone | 0.209 | 0.225 | 0.242 | 0.261 | 0.281 | 0.303 | 0.326 | 0.352 | 0.38 | 0.412
in acetonitrile | 0.0582 | 0.0738 | 0.0925 | 0.114 | 0.139 | 0.168 | 0.199 | 0.234 | 0.272 | 0.314
in cyclohexane | – | – | 0.00197 | 0.00263 | 0.00346 | 0.00454 | 0.00601 | 0.00799 | 0.0107 | 0.0145
in ethyl acetate | 0.175 | 0.193 | 0.214 | 0.237 | 0.258 | 0.284 | 0.312 | 0.342 | 0.372 | 0.407
in ethylbenzene | 0.0217 | 0.0278 | 0.0348 | 0.0437 | 0.0542 | 0.0678 | 0.0853 | 0.106 | 0.132 | 0.165
in isobutanol | 0.15 | 0.172 | 0.199 | 0.226 | 0.256 | 0.288 | 0.322 | 0.357 | 0.394 | 0.433
in isopropanol | 0.18 | 0.206 | 0.235 | 0.266 | 0.298 | 0.336 | 0.369 | 0.407 | 0.446 | 0.486
in n-butanol | 0.142 | 0.164 | 0.19 | 0.217 | 0.247 | 0.28 | 0.314 | 0.349 | 0.387 | 0.425
in n-propanol | 0.16 | 0.184 | 0.21 | 0.237 | 0.268 | 0.299 | 0.332 | 0.368 | 0.405 | 0.446
in toluene | 0.0241 | 0.0307 | 0.0388 | 0.0491 | 0.0617 | 0.0778 | 0.0975 | 0.122 | 0.153 | 0.191
in water | 0.000141 | 0.000186 | 0.000243 | 0.000311 | 0.000394 | 0.000506 | 0.000645 | 0.000821 | 0.00105 | 0.00134

N=C(Nc1ccccc1)Nc1ccccc1
solubility (mole fraction)
Conditions | 273.15 K | 275.65 K | 278.15 K | 280.65 K | 283.15 K | 285.65 K
in acetonitrile | 0.00811 | 0.00911 | 0.0103 | 0.011 | 0.012 | 0.0131
in ethanol | 0.0139 | 0.0152 | 0.017 | 0.0191 | 0.0192 | 0.0214
in isobutanol | 0.0128 | 0.0138 | 0.0142 | 0.0166 | 0.0177 | 0.0183
in n-propanol | 0.0152 | 0.0171 | 0.0181 | 0.021 | 0.0215 | 0.0241
in toluene | 0.00134 | 0.00149 | 0.00178 | 0.00189 | 0.00219 | 0.0024
